The source of these data is patent US9458120B2, “Phenoxypropanol derivative and pharmaceutical composition including the same” (KOREA INSTITUTE OF SCIENCE AND TECHNOLOGY, priority 2011, dated 2016).

For assay [1], the target named is T1, TREK-1 channel (Rattus norvegicus, UniProt Q920B6).
T1 construct: expressed in transfected cells; host or cells: COS7 (Korean Cell Line Bank), transient transfection with Effectene
T1 sequence (Q920B6 1-426): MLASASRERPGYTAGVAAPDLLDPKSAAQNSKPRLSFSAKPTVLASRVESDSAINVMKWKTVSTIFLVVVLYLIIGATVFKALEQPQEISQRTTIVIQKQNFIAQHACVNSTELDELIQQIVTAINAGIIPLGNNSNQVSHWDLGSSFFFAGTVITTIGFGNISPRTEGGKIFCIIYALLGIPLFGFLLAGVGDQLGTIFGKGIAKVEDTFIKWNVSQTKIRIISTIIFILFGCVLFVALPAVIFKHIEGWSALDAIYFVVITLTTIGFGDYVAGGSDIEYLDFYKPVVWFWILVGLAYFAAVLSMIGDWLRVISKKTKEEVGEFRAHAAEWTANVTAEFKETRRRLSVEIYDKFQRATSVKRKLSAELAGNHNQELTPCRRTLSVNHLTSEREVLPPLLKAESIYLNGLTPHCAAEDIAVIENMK
Nature of the assay: Assay for TREK channel inhibition activity (whole cell patch clamp recording, COS7 cell transfected with GFP-rTREK-1). It counts as cell-based. The following applies: COS7 cells, GFP-rTREK-1, whole-cell patch clamp; for inhibition at 101 µM: COS-7, Table 3 (value ± spread), 101 μM [sic], read-out: block % at 101 μM; for inhibition at 10 µM: COS-7, Table 2, read-out: block % at 10 μM. The protocol: The inhibition activity of the compound of the present invention against TREK-1 channel was measured by measuring the physiological activity by whole cell patch clamp recording.
COS7 cell (obtained from Korean Cell Line Bank (KCLB)) was transfected with GFP-rTREK-1 gene (accession number: AY727922) using an Effectene transfection reagent (Qiagen), and cultured for 24 hours in an incubator at 37° C. As a culture medium, Dulbecco's modified Eagle's medium (DMEM, GIBCO products from Invitrogen) containing 10% by weight of fetal bovine serum (FBS) and 1% by weight of penicillin/streptomycin (5000 unit/ml) was used. The cells thus prepared were adhered on a cover glass, which was placed on a chamber, and then a recording solution (150 mM NaCl, 10 mM HEPES, 10 mM KCl, 2 mM CaCl2, 5.5 mM D-Glucose, all reagents were purchased from Sigma) was applied. A glass microelectrode was filled with an intracellular solution prepared with the composition of 150 mM KCl, 5 mM EGTA, 10 mM HEPES, 0.5 mM CaCl2, 1 mM MgCl2, 4 mM Mg-ATP, and 0.3 mM Na-GTP (all reagents were purchased from Sigma), followed by whole-cell patch clamp recording. The voltage was fixed at −70 mV using a Digidata 1322A data acquisition system (Molecular Devices) and an Axopatch 200A amplifier (Axon Instruments), and the current generated by applying a voltage ramp from −100 mV to +100 mV for 1 second was measured using a Clampex9.2 program. A difference between the current values measured at +100 mV and −100 mV was defined as a current in the above experiment. The currents before and after blocker treatment were measured so as to determine the inhibition activity.
Block %=100−(current after blocker treatment/current before blocker treatment)*100
Background: The patch-clamp technique gives a direct electrical read-out from membranes.

In assay [2] the target is α1G T-type calcium channel (Homo sapiens, UniProt O43497). Nature of the assay: Assay for T-type calcium channel inhibition activity (FDSS6000 calcium imaging, KCl activation). It is filed as cell-based. The note with it: 75 s pre-treatment then KCl 75 mM, HEK293 cells expressing α1G T-type calcium channel and Kir2.1. The method, then: At 12-24 hours before the assay for T-type calcium channel activity, cells of HEK293 cell line (α1G cell line: KCTC 10519BP, GenBank, Korea Research Institute of Bioscience and Biotechnology) which stably express α1G T-type calcium channel and Kir2.1, were sub-cultured in a poly-L-lysine (0.05 mg/ml) treated 96-well plate with the density of 4×10^4 per a well using a 96-well cell dispenser (Titertek). On the day of assay, the 96-well plate to which the cells were attached were washed three times with a HEPES buffer solution (unit mM: 150 NaCl, 5 KCl, 1 MgCl2, 2 CaCl2, 10 HEPES, 10 glucose, pH 7.4) using a 96-well plate automatic washing device (Bio Tek), and then reacted with a HEPES buffer solution containing 5 μM fluo-3/AM and 0.001% (w/v) Pluronic F-127 at room temperature for 1 hour, to label with fluorescent dye, and then further washed twice with the HEPES buffer solution. Thereafter, at 10 minutes before the measurement using a FDSS6000 device, a washing with a HEPES buffer solution containing 10 mM CaCl2 was conducted once more, and the final volume was adjusted to 81 μl. Besides the above 96-well plate containing the cells, additional two 96-well drug plates were provided, in which the 96-well plates contained KCl (final concentration: 75 mM) for activating T-type calcium channel and a blocker drug, respectively.
Chain of α1G T-type calcium channel (O43497 whole entry): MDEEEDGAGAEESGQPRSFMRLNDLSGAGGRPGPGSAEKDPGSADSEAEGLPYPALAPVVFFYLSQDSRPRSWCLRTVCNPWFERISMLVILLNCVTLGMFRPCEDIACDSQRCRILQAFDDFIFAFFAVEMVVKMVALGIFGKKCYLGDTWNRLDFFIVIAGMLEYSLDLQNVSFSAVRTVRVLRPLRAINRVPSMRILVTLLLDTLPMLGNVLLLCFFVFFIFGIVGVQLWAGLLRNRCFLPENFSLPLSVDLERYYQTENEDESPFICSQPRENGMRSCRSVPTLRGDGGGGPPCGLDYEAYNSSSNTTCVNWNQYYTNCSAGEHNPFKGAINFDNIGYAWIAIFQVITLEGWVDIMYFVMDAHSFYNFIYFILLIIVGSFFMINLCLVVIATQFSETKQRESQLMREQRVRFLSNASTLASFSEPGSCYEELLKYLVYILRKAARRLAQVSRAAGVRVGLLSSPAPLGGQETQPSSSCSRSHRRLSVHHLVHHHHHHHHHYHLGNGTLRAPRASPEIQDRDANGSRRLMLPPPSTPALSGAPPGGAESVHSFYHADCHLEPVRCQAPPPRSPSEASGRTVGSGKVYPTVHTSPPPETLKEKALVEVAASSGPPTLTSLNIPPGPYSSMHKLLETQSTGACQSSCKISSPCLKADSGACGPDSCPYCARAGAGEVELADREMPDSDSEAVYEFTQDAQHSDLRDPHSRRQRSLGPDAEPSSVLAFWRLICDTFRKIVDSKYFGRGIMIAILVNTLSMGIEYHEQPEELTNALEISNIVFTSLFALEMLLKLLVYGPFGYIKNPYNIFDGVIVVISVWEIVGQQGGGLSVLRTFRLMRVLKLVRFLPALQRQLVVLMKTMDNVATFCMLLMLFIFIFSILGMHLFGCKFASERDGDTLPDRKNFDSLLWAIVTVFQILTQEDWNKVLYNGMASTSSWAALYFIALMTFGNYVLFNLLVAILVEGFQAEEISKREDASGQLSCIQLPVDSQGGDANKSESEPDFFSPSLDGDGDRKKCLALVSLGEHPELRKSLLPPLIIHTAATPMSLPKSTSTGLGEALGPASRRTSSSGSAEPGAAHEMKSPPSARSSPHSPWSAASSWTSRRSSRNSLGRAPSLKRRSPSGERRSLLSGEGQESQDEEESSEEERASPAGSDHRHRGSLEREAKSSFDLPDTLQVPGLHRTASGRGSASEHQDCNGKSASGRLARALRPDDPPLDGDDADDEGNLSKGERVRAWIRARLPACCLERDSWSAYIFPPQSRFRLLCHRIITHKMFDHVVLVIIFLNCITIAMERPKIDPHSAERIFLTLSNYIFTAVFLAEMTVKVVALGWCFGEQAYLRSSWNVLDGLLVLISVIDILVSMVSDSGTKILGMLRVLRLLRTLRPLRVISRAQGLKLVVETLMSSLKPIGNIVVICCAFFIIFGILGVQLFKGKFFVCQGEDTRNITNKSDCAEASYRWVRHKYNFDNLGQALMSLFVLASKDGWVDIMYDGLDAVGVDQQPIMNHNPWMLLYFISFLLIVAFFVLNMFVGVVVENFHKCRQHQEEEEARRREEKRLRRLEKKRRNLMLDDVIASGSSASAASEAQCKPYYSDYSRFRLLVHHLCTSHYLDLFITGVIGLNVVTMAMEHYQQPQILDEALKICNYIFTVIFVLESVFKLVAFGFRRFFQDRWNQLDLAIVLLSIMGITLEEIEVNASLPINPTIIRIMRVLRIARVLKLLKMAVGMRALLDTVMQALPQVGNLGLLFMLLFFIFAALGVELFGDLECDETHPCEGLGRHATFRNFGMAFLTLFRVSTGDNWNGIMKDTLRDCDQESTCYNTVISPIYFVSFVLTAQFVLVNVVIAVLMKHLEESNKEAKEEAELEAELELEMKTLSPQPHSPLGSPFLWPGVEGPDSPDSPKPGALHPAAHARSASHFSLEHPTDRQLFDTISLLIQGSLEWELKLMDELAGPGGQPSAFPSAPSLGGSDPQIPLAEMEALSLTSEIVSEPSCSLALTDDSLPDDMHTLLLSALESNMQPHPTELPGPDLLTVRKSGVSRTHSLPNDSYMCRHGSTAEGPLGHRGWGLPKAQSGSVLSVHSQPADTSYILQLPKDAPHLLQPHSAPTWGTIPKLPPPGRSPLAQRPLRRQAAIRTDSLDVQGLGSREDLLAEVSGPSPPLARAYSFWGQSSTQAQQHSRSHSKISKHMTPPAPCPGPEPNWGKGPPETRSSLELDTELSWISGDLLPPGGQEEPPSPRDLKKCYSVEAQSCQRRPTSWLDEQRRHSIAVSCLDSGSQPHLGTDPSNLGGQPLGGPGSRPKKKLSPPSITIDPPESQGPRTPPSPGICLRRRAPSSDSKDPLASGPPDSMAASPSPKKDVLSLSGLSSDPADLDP
Since most of cell-based HTS (High throughput screening) devices are equipped with a liquid application system for drug injection, but have no liquid sucking system, the blocker drug to be tested and KCl were respectively provided at the five-times higher concentration in 10 mM CaCl2 HEPES buffer solution at the amount of 27 μl, diluted five-times at the final cell plate volume of 135 μl, and then used in this test. In this Experimental Example, therefore, FDSS6000 (Hamamatsu Photonics) was used as an alternative to HTS device.
Specific FDSS6000 measurement conditions are as follows: After recording the reference value of 20 seconds, the change of intracellular calcium concentration which induced by pre-treatment of the drug (the prepared […]) for 75 seconds followed by administration of KCl was measured, in which the percentage (%) inhibition effect of the test drug was determined, through estimating the area of ratio value of 340/380 in the control without treatment of the test drug as 100%. As a reference drug, 10 μM of mibefradil was always used.
For accurate calcium-imagination, the light sources of 4 xenon lamps in FDSS6000 were radiated to make the cells exposed selectively to the excitation wavelength (340 nm and 380 nm) by computer-controlled filter wheel. Data was obtained at interval of each 1.23 second. The emitter fluorescence light inflow through a 515 nm long-pass filter was obtained as an average 340/380 ratio value for each well in the 96-wells by a cooled CCD camera and digital fluorescence analyzer in the device. All image data and analysis were obtained by using a FDSS6000-exclusive program provided by Hamamatsu Photonics, as described above.

On to `Cc1ccc(OC[C@H](O)CN2CCN(CC(=O)NCc3ccccc3)CC2)cc1` [KKRE10196, (R)-N-benzyl-2-(4-(2-hydroxy-3-(p-tolyloxy)propyl)piperazin-1-yl)acetamide], for which the inhibition at 101 µM in assay [1] came to 4.7 ± 1.04%. The inhibition in assay [2] was 26%.

Regarding `Cc1ccc(OC[C@@H](O)CN2CCN(CC(=O)NCc3ccccc3)CC2)cc1` [KKRE10197, (S)-N-benzyl-2-(4-(2-hydroxy-3-(p-tolyloxy)propyl)piperazin-1-yl)acetamide], the inhibition at 101 µM in assay [1] is 13.5 ± 3.9%. The inhibition in assay [2] came out at 27.1%.

As for `Cc1ccc(CNC(=O)CN2CCN(C[C@@H](O)COc3ccc(C)cc3)CC2)cc1` [KKRE10198, (R)-2-(4-(2-hydroxy-3-(p-tolyloxy)propyl)piperazin-1-yl)-N-(4-methylbenzyl)acetamide], in assay [1], the inhibition at 10 µM was 29.9% and the inhibition at 101 µM was 29.9 ± 3.9%. Besides, in assay [2], the inhibition is 28.6%.

On to `Cc1ccc(CNC(=O)CN2CCN(C[C@H](O)COc3ccc(C)cc3)CC2)cc1` [KKRE10199, (S)-2-(4-(2-hydroxy-3-(p-tolyloxy)propyl)piperazin-1-yl)-N-(4-methylbenzyl)acetamide], for which the inhibition at 101 µM in assay [1] worked out at 11 ± 2.58%. In assay [2], the inhibition came to 33.9%.

As for `Cc1ccc(OC[C@H](O)CN2CCN(CC(=O)NCc3ccc(C(F)(F)F)cc3)CC2)cc1` [KKRE10200, (R)-2-(4-(2-hydroxy-3-(p-tolyloxy)propyl)piperazin-1-yl)-N-(4-(trifluoromethyl)benzyl)acetamide], in assay [1], the inhibition at 10 µM was found to be 30.9% and the inhibition at 101 µM came out at 30.9 ± 3.86%. The inhibition in assay [2] amounted to 43.7%.

Turning to `Cc1ccc(OC[C@@H](O)CN2CCN(CC(=O)NCc3ccc(C(F)(F)F)cc3)CC2)cc1` [KKRE10201, (S)-2-(4-(2-hydroxy-3-(p-tolyloxy)propyl)piperazin-1-yl)-N-(4-(trifluoromethyl)benzyl)acetamide], in assay [1], the inhibition at 10 µM was 25.4% and the inhibition at 101 µM came to 25.4 ± 7.87%. Moreover, the inhibition in assay [2] came out at 55.4%.

Take `O=C(CN1CCN(C[C@@H](O)COc2ccccc2)CC1)NCc1ccccc1` [KKRE10202, (R)-N-benzyl-2-(4-(2-hydroxy-3-phenoxypropyl)piperazin-1-yl)acetamide]: the inhibition at 101 µM in assay [1] amounted to 0.84 ± 1.76%. In addition, in assay [2], the inhibition was found to be 21.4%.

With `O=C(CN1CCN(C[C@H](O)COc2ccccc2)CC1)NCc1ccccc1` [KKRE10203, (S)-N-benzyl-2-(4-(2-hydroxy-3-phenoxypropyl)piperazin-1-yl)acetamide], in assay [1], the inhibition at 10 µM came out at 38% and the inhibition at 101 µM amounted to 38 ± 6.42%. For the same compound, the inhibition in assay [2] turned out to be 17%.

With `Cc1ccc(CNC(=O)CN2CCN(C[C@@H](O)COc3ccccc3)CC2)cc1` [KKRE10204, (R)-2-(4-(2-hydroxy-3-phenoxypropyl)piperazin-1-yl)-N-(4-methylbenzyl)acetamide], in assay [1], the inhibition at 10 µM was 57.5% and the inhibition at 101 µM is 16.3 ± 12.9%. The inhibition in assay [2] came to 12.3%.

As for `CC(C)Cc1cc(CNC(=O)CN2CCN(C[C@@H](O)COc3ccc(C(F)(F)F)cc3)CC2)nn1-c1ccccc1` [KKRE10210, (R)-2-(4-(2-Hydroxy-3-(4-(trifluoromethyl)phenoxy)propyl)piperazin-1-yl)-N-((5-isobutyl-1-phenyl-1H-pyrazol-3-yl)methyl)acetamide], the inhibition at 101 µM in assay [1] stood at 77.5 ± 5.19%. Further, the figures for the “block % at 100 μM” value in assay [1] (Table 2) and in assay [1] (Table 3 (value ± spread)) were 91.23% and 91.22 ± 1.77%, respectively. Further, the inhibition in assay [2] worked out at 67%.

For the compound `CC(C)c1cc(CNC(=O)CN2CCN(C[C@@H](O)COc3ccc(C(F)(F)F)cc3)CC2)nn1-c1ccccc1` [KKRE10211, (R)-2-(4-(2-hydroxy-3-(4-(trifluoromethyl)phenoxy)propyl)piperazin-1-yl)-N-((5-isopropyl-1-phenyl-1H-pyrazol-3-yl)methyl)acetamide], the inhibition at 101 µM in assay [1] turned out to be 55.3 ± 6.53%. In assay [2], the inhibition amounted to 79%.

With `CC(C)Cc1cc(CNC(=O)CN2CCN(C[C@@H](O)COc3ccc(F)cc3)CC2)nn1-c1ccccc1` [KKRE10213, (R)-2-(4-(3-(4-Fluorophenoxy)-2-hydroxypropyl)piperazin-1-yl)-N-((5-isobutyl-1-phenyl-1H-pyrazol-3-yl)methyl)acetamide], in assay [1], the inhibition at 10 µM amounted to 64.7%. The inhibition in assay [2] came to 77.4%.

In the case of `CC(C)Cc1cc(CNC(=O)CN2CCN(C[C@H](O)COc3ccc(F)cc3)CC2)nn1-c1ccccc1` [KKRE10214, (S)-2-(4-(3-(4-Fluorophenoxy)-2-hydroxypropyl)piperazin-1-yl)-N-((5-isobutyl-1-phenyl-1H-pyrazol-3-yl)methyl)acetamide], the inhibition at 101 µM in assay [1] was 37.5 ± 5.31%. For the same compound, in assay [2], the inhibition came out at 77.5%.

As for `CC(C)Cc1cc(CNC(=O)CN2CCN(C[C@H](O)COc3ccc(C(F)(F)F)cc3)CC2)nn1-c1ccccc1` [KKRE10215, (S)-2-(4-(2-Hydroxy-3-(4-(trifluoromethyl)phenoxy)propyl)piperazin-1-yl)-N-((5-isobutyl-1-phenyl-1H-pyrazol-3-yl)methyl)acetamide], in assay [1], the inhibition at 101 µM was 82.1 ± 3.81%. Besides, in assay [2], the inhibition worked out at 80.9%.

For the compound `Cc1ccc(F)cc1-n1nc(CNC(=O)CN2CCN(C[C@@H](O)COc3ccc(C(F)(F)F)cc3)CC2)cc1CC(C)C` [KKRE10216, (R)-N-((1-(5-fluoro-2-methylphenyl)-5-isobutyl-1H-pyrazol-3-yl)methyl)-2-(4-(2-hydoxy-3-(4-(trifluoromethyl)phenoxy)propyl)piperazin-1-yl)acetamide], in assay [1], the inhibition at 101 µM was 71.4 ± 10.8%. Besides, the inhibition in assay [2] was 77.4%.

Regarding `CC(C)Cc1cc(CNC(=O)CN2CCN(C[C@@H](O)COc3ccc(C(F)(F)F)cc3)CC2)nn1-c1ccc(F)cc1` [KKRE10217, (R)-N-((1-(4-fluorophenyl)-5-isobutyl-1H-pyrazol-3-yl)methyl)-2-(4-(2-hydroxy-3-(4-(trifluoromethyl)phenoxy)propyl)piperazin-1-yl)acetamide], in assay [1], the inhibition at 101 µM turned out to be 50.1 ± 10.7%. The inhibition in assay [2] is 75.7%.
